Source: the NIST ThermoML archive (doi:10.1021/je200721d)

Assay: xn = mol fraction of the nth substance listed
Conditions: Liquid, Vibrating tube method

CCCCCCCC [octane] + CCCCCC
Conditions	mass density [kg/m3]
312.91 K, 1000 kPa, x2 = 0.2199	680.43
312.91 K, 2000 kPa, x2 = 0.2199	681.31
312.91 K, 3000 kPa, x2 = 0.2199	682.24
312.91 K, 4000 kPa, x2 = 0.2199	683.15
312.91 K, 5000 kPa, x2 = 0.2199	684.07
312.91 K, 6000 kPa, x2 = 0.2199	684.99
312.91 K, 7000 kPa, x2 = 0.2199	685.92
312.91 K, 8000 kPa, x2 = 0.2199	686.87
312.91 K, 9000 kPa, x2 = 0.2199	687.8
312.91 K, 10000 kPa, x2 = 0.2199	688.73
312.91 K, 11000 kPa, x2 = 0.2199	689.64
312.91 K, 12000 kPa, x2 = 0.2199	690.55
312.91 K, 13000 kPa, x2 = 0.2199	691.47
312.91 K, 14000 kPa, x2 = 0.2199	692.36
312.91 K, 15000 kPa, x2 = 0.2199	693.23
312.91 K, 16000 kPa, x2 = 0.2199	694.09
312.91 K, 17000 kPa, x2 = 0.2199	694.93
312.91 K, 18000 kPa, x2 = 0.2199	695.75
312.91 K, 19000 kPa, x2 = 0.2199	696.54
312.91 K, 20000 kPa, x2 = 0.2199	697.32
312.91 K, 21000 kPa, x2 = 0.2199	698.1
312.91 K, 22000 kPa, x2 = 0.2199	698.86
312.91 K, 23000 kPa, x2 = 0.2199	699.56
312.91 K, 24000 kPa, x2 = 0.2199	700.29
312.91 K, 25000 kPa, x2 = 0.2199	700.96
313.14 K, 1000 kPa, x2 = 0.1654	682.2
313.14 K, 1000 kPa, x2 = 0.5749	666.9
313.14 K, 1000 kPa, x2 = 0.7995	655.29
313.14 K, 1000 kPa, x2 = 0.9308	647.6
313.14 K, 2000 kPa, x2 = 0.1654	683.1
313.14 K, 2000 kPa, x2 = 0.5749	667.85
313.14 K, 2000 kPa, x2 = 0.7995	656.27
313.14 K, 2000 kPa, x2 = 0.9308	648.65
313.14 K, 3000 kPa, x2 = 0.1654	684.01
313.14 K, 3000 kPa, x2 = 0.5749	668.75
313.14 K, 3000 kPa, x2 = 0.7995	657.26
313.14 K, 3000 kPa, x2 = 0.9308	649.73
313.14 K, 4000 kPa, x2 = 0.1654	684.9
313.14 K, 4000 kPa, x2 = 0.5749	669.74
313.14 K, 4000 kPa, x2 = 0.7995	658.29
313.14 K, 4000 kPa, x2 = 0.9308	650.78
313.14 K, 5000 kPa, x2 = 0.1654	685.84
313.14 K, 5000 kPa, x2 = 0.5749	670.74
313.14 K, 5000 kPa, x2 = 0.7995	659.31
313.14 K, 5000 kPa, x2 = 0.9308	651.85
313.14 K, 6000 kPa, x2 = 0.1654	686.8
313.14 K, 6000 kPa, x2 = 0.5749	671.71
313.14 K, 6000 kPa, x2 = 0.7995	660.34
313.14 K, 6000 kPa, x2 = 0.9308	652.92
313.14 K, 7000 kPa, x2 = 0.1654	687.71
313.14 K, 7000 kPa, x2 = 0.5749	672.72
313.14 K, 7000 kPa, x2 = 0.7995	661.38
313.14 K, 7000 kPa, x2 = 0.9308	654
313.14 K, 8000 kPa, x2 = 0.1654	688.62
313.14 K, 8000 kPa, x2 = 0.5749	673.69
313.14 K, 8000 kPa, x2 = 0.7995	662.44
313.14 K, 8000 kPa, x2 = 0.9308	655.08
313.14 K, 9000 kPa, x2 = 0.1654	689.54
313.14 K, 9000 kPa, x2 = 0.5749	674.66
313.14 K, 9000 kPa, x2 = 0.7995	663.49
313.14 K, 9000 kPa, x2 = 0.9308	656.16
313.14 K, 10000 kPa, x2 = 0.1654	690.46
313.14 K, 10000 kPa, x2 = 0.5749	675.65
313.14 K, 10000 kPa, x2 = 0.7995	664.53
313.14 K, 10000 kPa, x2 = 0.9308	657.23
313.14 K, 11000 kPa, x2 = 0.1654	691.38
313.14 K, 11000 kPa, x2 = 0.5749	676.63
313.14 K, 11000 kPa, x2 = 0.7995	665.56
313.14 K, 11000 kPa, x2 = 0.9308	658.29
313.14 K, 12000 kPa, x2 = 0.1654	692.28
313.14 K, 12000 kPa, x2 = 0.5749	677.6
313.14 K, 12000 kPa, x2 = 0.7995	666.56
313.14 K, 12000 kPa, x2 = 0.9308	659.33
313.14 K, 13000 kPa, x2 = 0.1654	693.17
313.14 K, 13000 kPa, x2 = 0.5749	678.56
313.14 K, 13000 kPa, x2 = 0.7995	667.56
313.14 K, 13000 kPa, x2 = 0.9308	660.36
313.14 K, 14000 kPa, x2 = 0.1654	694.06
313.14 K, 14000 kPa, x2 = 0.5749	679.5
313.14 K, 14000 kPa, x2 = 0.7995	668.54
313.14 K, 14000 kPa, x2 = 0.9308	661.38
313.14 K, 15000 kPa, x2 = 0.1654	694.94
313.14 K, 15000 kPa, x2 = 0.5749	680.41
313.14 K, 15000 kPa, x2 = 0.7995	669.51
313.14 K, 15000 kPa, x2 = 0.9308	662.38
313.14 K, 16000 kPa, x2 = 0.1654	695.81
313.14 K, 16000 kPa, x2 = 0.5749	681.32
313.14 K, 16000 kPa, x2 = 0.7995	670.45
313.14 K, 16000 kPa, x2 = 0.9308	663.36
313.14 K, 17000 kPa, x2 = 0.1654	696.65
313.14 K, 17000 kPa, x2 = 0.5749	682.2
313.14 K, 17000 kPa, x2 = 0.7995	671.4
313.14 K, 17000 kPa, x2 = 0.9308	664.33
